Test results from patent publication US20070128217A1 (priority 2003, published 2007).

Tests used:
[1] = system: recombinant human anti-SARS-CoV antibody 03-018; assay type: binding; set-up: Binding of antibody 03-018 to linear peptides of the N protein of SARS-CoV Urbani / Binding of antibody 03-018 to looped/cyclic peptides of the N protein of SARS-CoV Urbani: unit not given here
[2] = system: antibodies in sera from SARS patients (sera 1a, 1b, 2, 6, 37, 62, London, SARS-yellow, SARS-green); assay type: binding, human; set-up: Binding of serum 6 to linear peptides of protein X1 of SARS-CoV Urbani / Binding of serum 37 to linear peptides of protein X1 of SARS-CoV Urbani / Binding of serum 6 to looped/cyclic peptide (PEPSCAN-ELISA) / Binding of serum 37 to looped/cyclic peptide (PEPSCAN-ELISA) / Binding of serum 37 to looped/cyclic peptides of protein X1 of SARS-CoV Urbani / Binding of serum 6 to linear peptides of protein X2 / Binding of serum 37 to linear peptides of protein X2 / Binding of serum 37 to looped/cyclic peptides of protein X2 of SARS-CoV Urbani / Binding of serum 6 to linear peptides of protein M of SARS-CoV Urbani / Binding of serum 37 to linear peptides of protein M of SARS-CoV Urbani / Binding of serum 6 to looped/cyclic peptides of protein M of SARS-CoV Urbani / Binding of serum 37 to looped/cyclic peptides of protein M of SARS-CoV Urbani / Binding of serum 6 to linear peptides of protein X3 of SARS-CoV Urbani / Binding of serum 37 to linear peptides of protein X3 of SARS-CoV Urbani / Binding of serum 37 to looped/cyclic peptides of protein X3 of SARS-CoV Urbani / Binding of serum 6 to linear peptides of protein X4 of SARS-CoV Urbani / Binding of serum 37 to linear peptides of protein X4 of SARS-CoV Urbani / Binding of serum 37 to looped/cyclic peptides of protein X4 of SARS-CoV Urbani / Binding of serum 6 to linear peptides of protein X5 of SARS-CoV Urbani / Binding of serum 37 to linear peptides of protein X5 of SARS-CoV Urbani / Binding of serum 37 to looped/cyclic peptides of protein X5 of SARS-CoV Urbani / Binding of serum 6 to linear peptides of protein N of SARS-CoV Urbani / Binding of serum 37 to linear peptides of protein N of SARS-CoV Urbani / Binding of serum 6 to linear peptide (PEPSCAN-ELISA) / Binding of serum 1a to looped/cyclic peptides of protein N of SARS-CoV Urbani / Binding of serum 1b to looped/cyclic peptides of protein N of SARS-CoV Urbani / Binding of serum 2 to looped/cyclic peptides of protein N of SARS-CoV Urbani / Binding of serum 6 to looped/cyclic peptides of protein N of SARS-CoV Urbani / Binding of serum 37 to looped/cyclic peptides of protein N of SARS-CoV Urbani / Binding of serum 62 to looped/cyclic peptides of protein N of SARS-CoV Urbani / Binding of serum London to looped/cyclic peptides of protein N of SARS-CoV Urbani / Binding of serum SARS-green to looped/cyclic peptides of protein N of SARS-CoV Urbani: unit not given here
[3] = system: control sera (pooled serum of ten healthy LUMC hospital workers; commercial negative donor pooled serum from the Dutch bloodbank); assay type: binding, human; set-up: Binding of Control serum LUMC to linear peptides / Binding of Control serum Blood-bank to linear peptides / Binding of Control serum LUMC to looped peptides / Binding of Control Serum Blood-Bank to Looped peptides / Binding of Control serum LUMC to linear peptides of the protein M of SARS-CoV Urbani / Binding of Control serum Blood-bank to linear peptides of the protein M of SARS-CoV Urbani / Binding of Control serum LUMC to looped peptides of the protein M of SARS-CoV Urbani / Binding of Control Serum Blood-Bank to Looped peptides of the protein M of SARS-CoV Urbani: unit not given here
[4] = system: rabbit serum obtained by immunizing a rabbit with the SARS-CoV strain Frankfurt 1; assay type: binding; set-up: Binding of a rabbit serum to linear peptides / Binding of a rabbit serum to looped peptides / Rabbit serum linear peptides / Rabbit serum looped peptides / Binding of a rabbit serum to linear peptides of protein N of SARS-CoV Urbani (Rabbit serum linear peptides) / Binding of a rabbit serum to looped/cyclic peptides of protein N of SARS-CoV Urbani (Rabbit serum looped peptides): unit not given here

| Sequence | Binding of antibody 03-018 to linear peptides of the N protein of SARS-CoV Urbani [1] | Binding of antibody 03-018 to looped/cyclic peptides of the N protein of SARS-CoV Urbani [1] | Binding of serum 1a to linear peptides of protein N of SARS-CoV Urbani [2] | Binding of serum 1a to looped/cyclic peptides of protein N of SARS-CoV Urbani [2] | Binding of serum 1b to linear peptides of protein N of SARS-CoV Urbani [2] | Binding of serum 1b to looped/cyclic peptides of protein N of SARS-CoV Urbani [2] | Binding of serum 2 to linear peptides of protein N of SARS-CoV Urbani [2] | Binding of serum 2 to looped/cyclic peptides of protein N of SARS-CoV Urbani [2] | Binding of serum 6 to linear peptides of protein N of SARS-CoV Urbani [2] | Binding of serum 6 to looped/cyclic peptides of protein N of SARS-CoV Urbani [2] | Binding of serum 37 to linear peptides of protein N of SARS-CoV Urbani [2] | Binding of serum 37 to looped/cyclic peptides of protein N of SARS-CoV Urbani [2] | Binding of serum 62 to linear peptides of protein N of SARS-CoV Urbani [2] | Binding of serum 62 to looped/cyclic peptides of protein N of SARS-CoV Urbani [2] | Binding of serum London to linear peptides of protein N of SARS-CoV Urbani [2] | Binding of serum London to looped/cyclic peptides of protein N of SARS-CoV Urbani [2] | Binding of serum SARS-green to looped/cyclic peptides of protein N of SARS-CoV Urbani [2] | Binding of serum SARS-yellow to looped/cyclic peptides of protein N of SARS-CoV Urbani [2] | Binding of a rabbit serum to linear peptides of protein N of SARS-CoV Urbani (Rabbit serum linear peptides) [4] | Binding of a rabbit serum to looped/cyclic peptides of protein N of SARS-CoV Urbani (Rabbit serum looped peptides) [4] | further results |
| --- | --- | --- | --- | --- | --- | --- | --- | --- | --- | --- | --- | --- | --- | --- | --- | --- | --- | --- | --- | --- | --- |
| NKEGIVWVATEGALN | 0.1 | 0.2 | 0.3 | 0.3 | 0.1 | 0.2 | 0.2 | 0.4 | 0.2 | 0.2 | 0.7 | 0.6 | 0.6 | 0.4 | 0.4 | 0.3 | 0.3 | 0.4 | 0.1 | 0.2 | Binding of serum SARS-green to linear peptides of protein N of SARS-CoV Urbani [2]: 0.4; Binding of serum SARS-yellow to linear peptides of protein N of SARS-CoV Urbani [2]: 0.9; Binding of Control Serum Blood-Bank to Looped peptides [3]: 0.6; Binding of Control serum Blood-bank to linear peptides [3]: 0.7; Binding of Control serum LUMC to linear peptides [3]: 0.7; Binding of Control serum LUMC to looped peptides [3]: 0.6 |
| NKHIDAYKTFPPTEP | 0.1 | 0.2 | 0.2 | 0.3 | 0.1 | 0.1 | 0.1 | 0.2 | 0.2 | 0.1 | 0.6 | 0.4 | 0.5 | 0.3 | 0.5 | 0.3 | 0.3 | 0.2 | 0.0 | 0.3 | Binding of serum SARS-green to linear peptides of protein N of SARS-CoV Urbani [2]: 0.3; Binding of serum SARS-yellow to linear peptides of protein N of SARS-CoV Urbani [2]: 0.6; Control Serum Blood-Bank Looped peptides [3]: 0.5; Control serum Blood-bank linear peptides [3]: 0.6; Control serum LUMC linear peptides [3]: 0.5; Control serum LUMC looped peptides [3]: 0.4 |
| NQLESKVSGKGQQQQ | 0.1 | 0.3 |  | 0.4 |  | 0.2 |  | 0.5 |  | 0.3 |  | 0.6 |  | 0.5 |  | 0.5 | 0.3 | 0.6 | 0.2 | 0.5 | Binding of serum 1a to linear peptide (PEPSCAN-ELISA) [2]: 0.3; Binding of serum 1b to linear peptide (PEPSCAN-ELISA) [2]: 0.2; Binding of serum 2 to linear peptide (PEPSCAN-ELISA) [2]: 0.3; Binding of serum 6 to linear peptide (PEPSCAN-ELISA) [2]: 0.2; Binding of serum 37 to linear peptide (PEPSCAN-ELISA) [2]: 0.7; Binding of serum 62 to linear peptide (PEPSCAN-ELISA) [2]: 0.8; Binding of serum London to linear peptide (PEPSCAN-ELISA) [2]: 0.6; Binding of serum SARS-green to linear peptide (PEPSCAN-ELISA) [2]: 0.5; Binding of serum SARS-yellow to linear peptide (PEPSCAN-ELISA) [2]: 0.7; Binding of Control Serum Blood-Bank to Looped peptides [3]: 0.7; Binding of Control serum Blood-bank to linear peptides [3]: 0.8; Binding of Control serum LUMC to linear peptides [3]: 0.9; Binding of Control serum LUMC to looped peptides [3]: 0.7 |
